Patent publication US20090221653A1, “7-(2-amino-1-hydroxy-ethyl)-4-hydroxybenzothiazol-2(3H)-one-derivatives as beta2 adrenoreceptor agonists” (AstraZeneca AB, priority 2005, published 2009)
pEC50: −log10 of the molar value. Counter-ions that a name gives are not always drawn.

What was measured:
[1] = target: T1, β2 receptor (Homo sapiens, UniProt P07550); assay: Adrenergic β2 mediated cAMP production in H292 cells (AlphaScreen cAMP detection); format: cell-based; conditions: for Intrinsic Activity: fraction relative to the maximum activity determined for formoterol, 10 minutes incubation
T1 construct: endogenous in cells; host or cells: H292 cells
Experimental: H292 cells were grown in RPMI (Roswell Park Memorial Institute) medium containing, 10% (v/v) FBS (foetal bovine serum) and 2 mM L-glutamine. Cells were grown in 225 cm2 flasks containing 25 mL media in a humidified incubator at 37° C., 5% CO2. Cells were harvested from the flask and passaged at a 1 in 10 dilution once per week.
The media from flasks containing H292 cells was removed, rinsed with 10 mL PBS (phosphate buffered saline) and replaced with 10 mL Accutase™ cell detachment solution. Flasks were incubated for 15 minutes in a humidified incubator at 37° C., 5% CO2. The cell suspension was counted and the cells re-suspended in RPMI media (containing 10% (v/v) FBS and 2 mM L-glutamine) at 0.05×10^6 cells per mL. 5000 cells in 100 μL were added to each well of a tissue-culture-treated 96-well plate and the cells incubated overnight in a humidified incubator at 37° C., 5% CO2. The culture media was removed, washed twice with 100 μL assay buffer and replaced with 50 μL assay buffer. Cells were rested at room temperature for 20 minutes after which time 25 μL of rolipram (1.2 mM made up in assay buffer containing 2.4% (v/v) dimethylsulphoxide) was added. Cells were incubated with rolipram for 10 minutes after which time test compounds (made up as ×4 concentrated stocks in assay buffer containing 4% (v/v) dimethylsulphoxide) were added and the cells were incubated for 10 minutes at room temperature. Final rolipram concentration in the assay was 300 μM and final vehicle concentration was 1.6% (v/v) dimethylsulphoxide. The reaction was stopped by removing supernatants, washing once with 100 μL assay buffer and replacing with 50 μL lysis buffer. The cell monolayer was frozen at −80° C. for 30 minutes (or overnight).
The concentration of cAMP (cyclic adenosine monophosphate) in the cell lysate was determined using the AlphaScreen™ methodology. The frozen cell plate was thawed for 20 minutes on a plate shaker then 10 μL of the cell lysate was transferred to a 96-well white plate. 40 μL of mixed AlphaScreen™ detection beads (containing equal volumes of donor beads (pre-incubated with biotinylated cAMP in the dark for 30 minutes) and acceptor beads), was added to each well and the plate incubated at room temperature for 10 hours in the dark. The AlphaScreen™ signal was measured using an EnVision spectrophotometer (Perkin-Elmer Inc.) with the recommended manufacturer's settings. cAMP concentrations were determined by reference to a calibration curve determined in the same experiment using standard cAMP concentrations (made up in lysis buffer in a 96-well tissue-culture-treated plate and frozen/thawed alongside the test samples) and detected using the same protocol. Concentration response curves for agonists were constructed to determine both the pEC50 and Intrinsic Activity.

[2] = target: T2, Adrenergic β2 (Homo sapiens, UniProt P07550); assay: Alternative Adrenergic β2 Mediated cAMP Production in H292 cells (AlphaScreen cAMP detection); format: cell-based; conditions: for β2 Int Act: fraction relative to the maximum activity determined for formoterol, 60 minutes incubation
T2 construct: endogenous in cells; host or cells: H292 cells

[3] = target: T3, recombinant human Dopamine Subtype D2s receptors (Homo sapiens, UniProt P14416); assay: Dopamine D2 selectivity assay, inhibition of [3H]-spiperone binding; conditions: membranes, [3H]-spiperone 0.16 nM; read-out: D2 bind pIC50 (converted)
T3 construct: purchased Perkin Elmer
Experimental: Membranes containing recombinant human Dopamine Subtype D2s receptors were obtained from Perkin Elmer. These were diluted in Assay Buffer ([…] HEPES, 1 mM EDTA, 120 mM NaCl, 0.1% gelatin, pH 7.4) to provide a final concentration of membranes that gave a clear window between maximum and minimum specific binding.
Assays were performed in U-bottomed 96-well polypropylene plates. […] For each assay plate 8 replicates were obtained for [^3H]-spiperone binding in the presence of 30 μL vehicle (10% (v/v) DMSO in Assay Buffer; defining maximum binding) or 30 μL Haloperidol (10 μM final concentration; defining non-specific binding (NSB)). Membranes were then added to achieve a final volume of 300 μL. The plates were incubated for 2 hours at room temperature and then filtered onto PEI coated GF/B filter plates, pre-soaked for 1 hour in Assay Buffer, using a 96-well plate Tomtec cell harvester. Five washes with 250 μL wash buffer (50 mM HEPES, 1 mM EDTA, 120 mM NaCl, pH 7.4) were performed at 4° C. to remove unbound radioactivity. The plates were dried then sealed from underneath using Packard plate sealers and MicroScint-O (50 μL) was added to each well. The plates were sealed (TopSeal A) and filter-bound radioactivity was measured with a scintillation counter (TopCount, Packard BioScience) using a 3-minute counting protocol. Total specific binding (B0) was determined by subtracting the mean NSB from the mean maximum binding. NSB values were also subtracted from values from all other wells.

T1 sequence (P07550 whole entry): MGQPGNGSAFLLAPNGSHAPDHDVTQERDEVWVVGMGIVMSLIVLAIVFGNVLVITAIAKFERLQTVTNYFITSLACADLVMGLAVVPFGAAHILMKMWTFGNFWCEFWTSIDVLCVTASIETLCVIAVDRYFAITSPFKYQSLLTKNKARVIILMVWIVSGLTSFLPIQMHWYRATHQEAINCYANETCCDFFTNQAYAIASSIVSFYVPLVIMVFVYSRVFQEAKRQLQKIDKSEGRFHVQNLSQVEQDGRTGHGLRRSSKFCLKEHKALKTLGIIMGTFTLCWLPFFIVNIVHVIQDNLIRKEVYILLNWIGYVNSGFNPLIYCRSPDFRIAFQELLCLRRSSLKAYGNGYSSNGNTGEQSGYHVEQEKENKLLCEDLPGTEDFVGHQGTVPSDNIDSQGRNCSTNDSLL
T2 sequence (P07550 whole entry): as above
T3 sequence (P14416 1-414 isoform P14416-2): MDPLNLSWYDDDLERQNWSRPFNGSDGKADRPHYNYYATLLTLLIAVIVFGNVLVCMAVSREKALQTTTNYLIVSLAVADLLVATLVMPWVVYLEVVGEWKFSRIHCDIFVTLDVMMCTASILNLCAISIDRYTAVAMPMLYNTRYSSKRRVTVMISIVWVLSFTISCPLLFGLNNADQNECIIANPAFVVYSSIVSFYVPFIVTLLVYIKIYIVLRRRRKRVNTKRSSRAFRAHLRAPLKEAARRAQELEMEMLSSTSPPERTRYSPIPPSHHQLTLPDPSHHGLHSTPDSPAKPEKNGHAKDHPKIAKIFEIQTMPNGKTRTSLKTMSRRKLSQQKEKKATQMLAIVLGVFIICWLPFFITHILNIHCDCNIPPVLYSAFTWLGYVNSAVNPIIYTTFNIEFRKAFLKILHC

CN(CCCSCCNC[C@H](O)c1ccc(O)c2[nH]c(=O)sc12)CCc1ccccc1 [Example 12, 4-Hydroxy-7-((1R)-1-hydroxy-2-{[2-({3-[methyl(2-phenylethyl)amino]propyl}-thio)ethyl]amino}ethyl)-1,3-benzothiazol-2(3H)-one trifluoroacetate]
pEC50 ([1]; cAMP, test compounds incubated 10 minutes, 300 μM rolipram): 8.30 | Intrinsic Activity [1]: 0.8 | EC50 ([2]; cAMP, test compounds incubated 60 minutes, 300 μM rolipram, read-out: β2 pEC50 (converted)): 3.16 nM | β2 Int Act [2]: 1

Cl.O=c1[nH]c2c(O)ccc([C@@H](O)CNCCSCCCOCCc3ccccc3)c2s1 [Example 8, 4-Hydroxy-7-{(1R)-1-hydroxy-2-[(2-{[3-(2-phenylethoxy)propyl]thio}-ethyl)amino]ethyl}-1,3-benzothiazol-2(3H)-one hydrochloride]
Intrinsic Activity [1]: 1.0 | IC50 [3]: 1000 nM | β2 Int Act [2]: 1
